Where “and” joins values, the source holds several entries; their conditions need not be identical. Equal values may be shown once.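 These data come from cells grown in 96-well plates and exposed to compound for 48 hours at five concentrations. GI50 is the concentration that inhibits growth by half. TGI is the concentration that stops growth completely.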

One test deals with HCT-116 colon. The experiment in a line: growth of human tumour cells (NCI), 48 h.
For `O=C(COc1ccc(/C=C2\Oc3ccccc3C2=O)cc1)Nc1nc2ccccc2s1`, the GI50 was 19.3 µM and the TGI is more than 100 µM.
The compound `CC12OC(=O)C(C#N)C1(C)C1C(=O)CCCC12` (centres undefined) came in with a TGI of more than 100 µM.
With `CCc1cccc(CC)c1NC(=O)/C(Cl)=C(/Cl)C(=O)O`, the TGI was 50.3 µM.
Compound `O=[N+]([O-])c1ccc(-c2ccc(C3=Nn4c(CNc5ccccc5Cl)nnc4SC3)o2)cc1` had a TGI of more than 100 µM.
As for `Cc1cc(Br)c(NC(=O)c2c(-c3c(Cl)cccc3Cl)noc2C)c(Br)c1`, the GI50 is more than 100 µM and the TGI is more than 100 µM.
Take `OCC1CC[N-]CC1.OCC1CC[N-]CC1.[Cl][Pt+2]([Cl])([Cl])[Cl]`: the GI50 was 25.6 µM and the TGI is 86.5 µM.
`CC(=O)OCC(=O)[C@@]1(O)CC[C@H]2[C@@H]3C[C@H](C)C4=CC(=O)C=C[C@]4(C)[C@@]3(F)[C@@H](O)C[C@@]21C` came in with a TGI of more than 100 µM.
For `OCCCCC#Cc1ccccc1C#Cc1cccc(C(F)(F)F)c1`, the GI50 is 20.9 µM and the TGI came out at 49.8 µM.
For `Nc1nc(=S)c2c(ncn2CCO)[nH]1`, the TGI was more than 100 µM.
The compound `CC(C)Cc1ccc(C(C)/C=C2\CCC(CN(C)C)C2=O)cc1` (centres undefined) registered a TGI of 23.1 µM.

The next test has as its system K-562 leukemia. The experiment in a line: growth of human tumour cells (NCI), 48 h.
Regarding `CCSCC1CC(O)(c2ccccc2)C(c2ccccc2)C(c2ccc(F)cc2)O1` (centres undefined), the GI50 was 2.11 µM and the TGI is 6.53 µM.
Regarding `CCO/C=C1\SC(=S)N(c2ccc(OCC)cc2)C1=O`, the TGI was more than 100 µM.
As for `Nc1nc(=S)c2ncn(C3OC(COP(=O)(O)O)C(O)C3O)c2[nH]1` (centres undefined), the GI50 was 0.965 µM and the TGI is more than 100 µM.
`NC(N)=NCCCC(NCc1c2ccccc2nc2ccccc12)C(=O)O` (centres undefined) came in with a TGI of more than 89.4 µM.
The same measure, in the same setting: as for `CC(=O)O[C@H]1CC2C(C3CC[C@H](C(C)CCC(=O)O)[C@]31C)[C@H](OC(C)=O)C[C@@H]1CC3(CC[C@]21C)OOC1(CCC(C)CC1)OO3` (some centres undefined), the figure is 16.8 µM and 6.21 µM.
`Cc1cnc(C(=O)NNc2nc3sc4c(c3c(=O)[nH]2)C(C)CCC4)cn1` (centres undefined): the GI50 was 2.66 µM and the TGI is more than 100 µM.
Turning to `O=C1c2ccccc2C(=O)c2c(NC3CCCCC3)ccc(Nc3ccc(S(=O)(=O)O)cc3)c21`, the TGI was more than 100 µM.
Take `CN(C)c1ccc(-c2cc(-c3ccc(Nc4nc(Nc5ccc(Cl)cc5)nc(Nc5ccc(Cl)cc5)n4)cc3)nc(N)c2C#N)cc1`: the GI50 was 5.2 µM and the TGI is more than 100 µM.
In the same order, the values of `COCCN(Cc1ccc(F)cc1)c1ccc(CO)c(Cl)c1` are 10 µM and more than 100 µM.
For `O=C(COc1ccc(/C=C2\Oc3ccccc3C2=O)cc1)Nc1nc2ccccc2s1`, in that order: 16.7 µM and more than 100 µM.
Compound `CC12OC(=O)C(C#N)C1(C)C1C(=O)CCCC12` (centres undefined) yielded a TGI of more than 100 µM.
With `CCc1cccc(CC)c1NC(=O)/C(Cl)=C(/Cl)C(=O)O`, the TGI was more than 94.9 µM.
With `O=[N+]([O-])c1ccc(-c2ccc(C3=Nn4c(CNc5ccccc5Cl)nnc4SC3)o2)cc1`, the TGI was more than 100 µM.
As to `Cc1cc(Br)c(NC(=O)c2c(-c3c(Cl)cccc3Cl)noc2C)c(Br)c1`, the GI50 was more than 100 µM and the TGI was more than 100 µM.
In the case of `OCC1CC[N-]CC1.OCC1CC[N-]CC1.[Cl][Pt+2]([Cl])([Cl])[Cl]`, the GI50 is 35.9 µM.
Turning to `CC(=O)OCC(=O)[C@@]1(O)CC[C@H]2[C@@H]3C[C@H](C)C4=CC(=O)C=C[C@]4(C)[C@@]3(F)[C@@H](O)C[C@@]21C`, the TGI is more than 100 µM.
Take `OCCCCC#Cc1ccccc1C#Cc1cccc(C(F)(F)F)c1`: the GI50 was 22.5 µM and the TGI amounted to 71.5 µM.
Consider `Nc1nc(=S)c2c(ncn2CCO)[nH]1`, for which the TGI was more than 100 µM.
`CC(C)Cc1ccc(C(C)/C=C2\CCC(CN(C)C)C2=O)cc1` (centres undefined) gave a TGI of 8.04 µM.

The subject of another test is OVCAR-3 ovarian. Nature of the test: growth of human tumour cells (NCI), 48 h.
With `CCSCC1CC(O)(c2ccccc2)C(c2ccccc2)C(c2ccc(F)cc2)O1` (centres undefined), the GI50 was 2.19 µM and the TGI was 5.26 µM.
`CCO/C=C1\SC(=S)N(c2ccc(OCC)cc2)C1=O`: the TGI is more than 100 µM.
Take `Nc1nc(=S)c2ncn(C3OC(COP(=O)(O)O)C(O)C3O)c2[nH]1` (centres undefined): the GI50 was 3.2 µM and the TGI was more than 100 µM.
`NC(N)=NCCCC(NCc1c2ccccc2nc2ccccc12)C(=O)O` (centres undefined) yielded a TGI of more than 100 µM.
Regarding `CC(=O)O[C@H]1CC2C(C3CC[C@H](C(C)CCC(=O)O)[C@]31C)[C@H](OC(C)=O)C[C@@H]1CC3(CC[C@]21C)OOC1(CCC(C)CC1)OO3` (some centres undefined), the GI50 is 4.65 µM and 2.13 µM; the TGI is 16.4 µM and 5.44 µM.
Regarding `Cc1cnc(C(=O)NNc2nc3sc4c(c3c(=O)[nH]2)C(C)CCC4)cn1` (centres undefined), the GI50 is 0.506 µM and the TGI is 17.1 µM.
Compound `O=C1c2ccccc2C(=O)c2c(NC3CCCCC3)ccc(Nc3ccc(S(=O)(=O)O)cc3)c21` registered a TGI of more than 100 µM.
With `CN(C)c1ccc(-c2cc(-c3ccc(Nc4nc(Nc5ccc(Cl)cc5)nc(Nc5ccc(Cl)cc5)n4)cc3)nc(N)c2C#N)cc1`, the GI50 was 13.6 µM and the TGI turned out to be 92 µM.
For `COCCN(Cc1ccc(F)cc1)c1ccc(CO)c(Cl)c1`, the GI50 was 3.54 µM and the TGI was 15.4 µM.
As to `O=C(COc1ccc(/C=C2\Oc3ccccc3C2=O)cc1)Nc1nc2ccccc2s1`, the GI50 was 1.9 µM and the TGI came to 4.78 µM.
Consider `CC12OC(=O)C(C#N)C1(C)C1C(=O)CCCC12` (centres undefined), for which the TGI is more than 100 µM.
Turning to `CCc1cccc(CC)c1NC(=O)/C(Cl)=C(/Cl)C(=O)O`, the TGI came to 48.1 µM.
Take `O=[N+]([O-])c1ccc(-c2ccc(C3=Nn4c(CNc5ccccc5Cl)nnc4SC3)o2)cc1`: the TGI is more than 100 µM.
For the compound `Cc1cc(Br)c(NC(=O)c2c(-c3c(Cl)cccc3Cl)noc2C)c(Br)c1`, the GI50 is more than 100 µM and the TGI was more than 100 µM.
Take `OCC1CC[N-]CC1.OCC1CC[N-]CC1.[Cl][Pt+2]([Cl])([Cl])[Cl]`: the GI50 was 45.9 µM.
For `CC(=O)OCC(=O)[C@@]1(O)CC[C@H]2[C@@H]3C[C@H](C)C4=CC(=O)C=C[C@]4(C)[C@@]3(F)[C@@H](O)C[C@@]21C`, the TGI was more than 100 µM.
With `OCCCCC#Cc1ccccc1C#Cc1cccc(C(F)(F)F)c1`, the GI50 was 16.8 µM and the TGI was found to be 31.6 µM.
For the compound `Nc1nc(=S)c2c(ncn2CCO)[nH]1`, the TGI is more than 100 µM.
In the case of `CC(C)Cc1ccc(C(C)/C=C2\CCC(CN(C)C)C2=O)cc1` (centres undefined), the TGI worked out at 26.5 µM.

The record behind these values is PubChem BioAssay (NCI).
